The values below come from patent US20140243286A1, “BROMODOMAIN LIGANDS CAPABLE OF DIMERIZING IN AN AQUEOUS SOLUTION, AND METHODS OF USING SAME” (Coferon, Inc., priority 2011, published 2014).

Molecules are shown by their SMILES. Read-outs that look alike come from different tables or passages of the source.

Series [1] concerns bromodomain. Nature of the series: TR-FRET assay. It is filed as binding. The note with it: BRD-S monomers; based on monomer concentration; read-out: IC50 range (based on monomer concentration), Group (FRET assay). How it is done: TR-FRET assays were performed as described in Chung et al, J. Med Chem., 2011 54(11): 3827-38 except that FRET was measured on a Spectramax M5 plate reader.
Background: Time-resolved FRET reads energy transfer from a long-lived donor to a nearby acceptor.

Series [2] addresses BRD4 (Homo sapiens, UniProt O60885). Nature of the series: Fluorescence anisotropy (FA) binding assay, BRD4. The note with it: BRD4, protein 125 nM. How it is done:
(§1) Fluorescence Anisotropy (FA) Binding Assays.
(§2) FA assays were performed as described in Chung et al., J. Med Chem., 2011 54(11): 3827-38 except that protein concentrations were 125 nM and plates were read on a Spectramax M5 plate reader.
(In fluorescence polarisation assays a small probe gives low polarisation when free and higher when bound to something large.)

In series [3] the target is BRD3 (Homo sapiens, UniProt Q15059). As to the kind of experiment: Fluorescence anisotropy (FA) binding assay, BRD3. The note with it: BRD3, protein 125 nM. How it is done:
as §1, §2

The target of series [4] is BRD2 (Homo sapiens, UniProt P25440). As to the kind of experiment: Fluorescence anisotropy (FA) binding assay, BRD2. The note with it: BRD2, protein 125 nM. As for the experimental part:
as §1, §2

Where [5] appears, read: read-out: IC50 range (FA assay) BRD4, BRD-N monomers.
The mark [6] stands for this setting: read-out: IC50 range (FA assay) BRD3, BRD-N monomers.
Setting [7] is: read-out: IC50 range (FA assay) BRD2, BRD-N monomers.
[8] abbreviates: read-out: IC50 range (FA assay) BRD4, BRD-E monomers.
The mark [9] stands for this setting: read-out: IC50 range (FA assay) BRD3, BRD-E monomers.
[10] abbreviates: read-out: IC50 range (FA assay) BRD2, BRD-E monomers.

Chain of BRD2 (P25440 whole entry): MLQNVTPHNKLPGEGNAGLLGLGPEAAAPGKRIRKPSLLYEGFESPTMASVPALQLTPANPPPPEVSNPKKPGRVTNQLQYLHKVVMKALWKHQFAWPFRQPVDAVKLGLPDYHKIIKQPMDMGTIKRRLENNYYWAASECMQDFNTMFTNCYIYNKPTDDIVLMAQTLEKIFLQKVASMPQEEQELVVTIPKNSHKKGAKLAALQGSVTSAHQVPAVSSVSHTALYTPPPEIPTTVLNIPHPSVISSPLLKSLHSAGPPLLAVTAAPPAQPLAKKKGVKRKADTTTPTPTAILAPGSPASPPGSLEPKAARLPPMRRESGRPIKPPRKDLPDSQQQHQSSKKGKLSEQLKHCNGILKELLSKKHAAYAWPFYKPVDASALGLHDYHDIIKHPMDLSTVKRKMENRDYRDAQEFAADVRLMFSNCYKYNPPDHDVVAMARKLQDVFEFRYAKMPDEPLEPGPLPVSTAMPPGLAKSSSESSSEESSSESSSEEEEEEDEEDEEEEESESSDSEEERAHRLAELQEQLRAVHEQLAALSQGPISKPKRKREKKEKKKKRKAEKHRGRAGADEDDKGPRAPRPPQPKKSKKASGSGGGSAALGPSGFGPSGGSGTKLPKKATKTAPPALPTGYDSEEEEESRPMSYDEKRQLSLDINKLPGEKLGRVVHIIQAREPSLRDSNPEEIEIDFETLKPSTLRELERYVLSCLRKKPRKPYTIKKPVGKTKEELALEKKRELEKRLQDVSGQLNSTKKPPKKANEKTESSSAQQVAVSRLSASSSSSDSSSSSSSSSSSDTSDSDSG
Chain of BRD3 (Q15059 whole entry): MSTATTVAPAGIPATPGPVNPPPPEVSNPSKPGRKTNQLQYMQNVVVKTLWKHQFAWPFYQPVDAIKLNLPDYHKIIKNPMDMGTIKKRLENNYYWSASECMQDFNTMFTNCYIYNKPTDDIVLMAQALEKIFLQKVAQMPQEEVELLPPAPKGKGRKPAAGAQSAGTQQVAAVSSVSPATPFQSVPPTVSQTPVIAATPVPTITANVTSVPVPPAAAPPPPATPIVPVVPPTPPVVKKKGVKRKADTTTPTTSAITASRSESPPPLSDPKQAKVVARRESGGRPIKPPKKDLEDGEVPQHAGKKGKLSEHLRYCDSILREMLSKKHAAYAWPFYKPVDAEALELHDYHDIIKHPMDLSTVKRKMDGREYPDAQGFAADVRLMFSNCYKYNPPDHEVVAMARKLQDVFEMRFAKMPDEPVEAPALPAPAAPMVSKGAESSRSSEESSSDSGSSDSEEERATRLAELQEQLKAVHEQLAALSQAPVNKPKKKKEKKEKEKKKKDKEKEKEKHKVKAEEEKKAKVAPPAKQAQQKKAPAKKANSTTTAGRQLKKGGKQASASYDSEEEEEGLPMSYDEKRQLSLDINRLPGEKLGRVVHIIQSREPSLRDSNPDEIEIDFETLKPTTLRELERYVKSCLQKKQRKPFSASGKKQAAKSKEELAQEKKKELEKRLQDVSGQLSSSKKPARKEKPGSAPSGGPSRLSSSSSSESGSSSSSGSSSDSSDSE

As to `COc1ccc2c(c1)C(c1ccc(Cl)cc1)=N[C@@H](CC(=O)NCCOc1cccc([Si](C)(C)O)c1)c1nnc(C)n1-2` [BRD-S-10, (S)-2-(6-(4-chlorophenyl)-8-methoxy-1-methyl-4H-benzo[f][1,2,4]triazolo[4,3-a][1,4]diazepin-4-yl)-N-(2-(3-(hydroxydimethylsilyl)phenoxy)ethyl)acetamide], the IC50 in series [1] was in the range of 0.1 to 0.3 µM.

The compound `CCNC(=O)C[C@@H]1N=C(c2ccc(Cl)cc2)c2cc(O)ccc2-n2c(C)nnc21` registered a melting point of 180 to 182 °C.

Regarding `CCNC(=O)C[C@@H]1N=C(c2ccc(Cl)cc2)c2cc(OCC(=O)Nc3cccc(O)c3O)ccc2-n2c(C)nnc21` [BRD-N-17, (S)-2-((6-(4-chlorophenyl)-4-(2-(ethylamino)-2-oxoethyl)-1-methyl-4H-benzo[f][1,2,4]triazolo[4,3-a][1,4]diazepin-8-yl)oxy)-N-(2,3-dihydroxyphenyl)acetamide], the results for the IC50 in series [2] (setting [5]), in series [3] (setting [6]) and in series [4] (setting [7]) were 0.05 to 1 µM, 1 to 30 µM and 0.05 to 1 µM, respectively.

Take `CCNC(=O)C[C@@H]1N=C(c2ccc(Cl)cc2)c2cc(OCCCCNC(=O)c3cccc(O)c3O)ccc2-n2c(C)nnc21` [BRD-N-29, (S)—N-(4-((6-(4-chlorophenyl)-4-(2-(ethylamino)-2-oxoethyl)-1-methyl-4H-benzo[f][1,2,4]triazolo[4,3-a][1,4]diazepin-8-yl)oxy)butyl)-2,3-dihydroxybenzamide]: the IC50 in series [2] (setting [5]) fell in the range of 1 to 30 µM; in series [3] (setting [6]) it was 1 to 30 µM; in series [4] (setting [7]) it was 0.05 to 1 µM.

Take `COc1ccc2c(c1)C(c1ccc(Cl)cc1)=N[C@@H](CC(=O)NCCNC(=O)c1ccc(O)c(O)c1)c1nnc(C)n1-2` [BRD-N-01, N-(2-(2-((4S)-6-(4-chlorophenyl)-8-methoxy-1-methyl-4H-benzo[f][1,2,4]triazolo[4,3-a][1,4]diazepin-4-yl)acetamido)ethyl)-3,4-dihydroxybenzamide]: the IC50 in series [2] (setting [5]), in series [3] (setting [6]) and in series [4] (setting [7]) was 0.05 to 1 µM in each case.

Turning to `CCNC(=O)C[C@@H]1N=C(c2ccc(Cl)cc2)c2cc(OCCCC(=O)Nc3cccc(O)c3O)ccc2-n2c(C)nnc21` [BRD-N-21, (S)-4-((6-(4-chlorophenyl)-4-(2-(ethylamino)-2-oxoethyl)-1-methyl-4H-benzo[f][1,2,4]triazolo[4,3-a][1,4]diazepin-8-yl)oxy)-N-(2,3-dihydroxyphenyl)butanamide], the IC50 in series [2] (setting [5]) lay in the range of 0.05 to 1 µM; in series [3] (setting [6]), 0.05 to 1 µM; in series [4] (setting [7]) it was 1 to 30 µM.

As to `CCNC(=O)C[C@@H]1N=C(c2ccc(Cl)cc2)c2cc(OCCCCC(=O)Nc3ccc(O)c(O)c3)ccc2-n2c(C)nnc21` [BRD-N-22, (S)-5-((6-(4-chlorophenyl)-4-(2-(ethylamino)-2-oxoethyl)-1-methyl-4H-benzo[f][1,2,4]triazolo[4,3-a][1,4]diazepin-8-yl)oxy)-N-(3,4-dihydroxyphenyl)pentanamide], the IC50 in series [2] (setting [5]), in series [3] (setting [6]) and in series [4] (setting [7]) was 0.05 to 1 µM each time.

As for `CCNC(=O)C[C@@H]1N=C(c2ccc(Cl)cc2)c2cc(OCC(=O)Nc3cccc(B(O)O)c3)ccc2-n2c(C)nnc21` [BRD-E-15, (S)-(3-(2-((6-(4-chlorophenyl)-4-(2-(ethylamino)-2-oxoethyl)-1-methyl-4H-benzo[f][1,2,4]triazolo[4,3-a][1,4]diazepin-8-yl)oxy)acetamido)phenyl)boronic acid], the IC50 in series [2] (setting [8]) fell in the range of 0.05 to 1 µM; in series [3] (setting [9]), 0.05 to 1 µM; in series [4] (setting [10]) it was 1 to 30 µM.

On to `CCNC(=O)C[C@@H]1N=C(c2ccc(Cl)cc2)c2cc(OCCCC(=O)Nc3cccc(B(O)O)c3)ccc2-n2c(C)nnc21` [BRD-E-19], for which the IC50 in series [2] (setting [8]), in series [3] (setting [9]) and in series [4] (setting [10]) was 0.05 to 1 µM each time.

Turning to `CCNC(=O)C[C@@H]1N=C(c2ccc(Cl)cc2)c2cc(OCCCNC(=O)c3ccc(B(O)O)cc3)ccc2-n2c(C)nnc21` [BRD-E-24, (S)-(4-((3-((6-(4-chlorophenyl)-4-(2-(ethylamino)-2-oxoethyl)-1-methyl-4H-benzo[f][1,2,4]triazolo[4,3-a][1,4]diazepin-8-yl)oxy)propyl)carbamoyl)phenyl)-boronic acid], the IC50 in series [2] (setting [8]) lay within 0.05 to 1 µM; in series [3] (setting [9]) it was 0.05 to 1 µM; in series [4] (setting [10]) it was 1 to 30 µM.

`COc1ccc2c(c1)C(c1ccc(Cl)cc1)=N[C@@H](CC(=O)NCCCCNC(=O)c1ccc(B(O)O)cc1)c1nnc(C)n1-2` [BRD-E-05, (4-((4-(2-((4S)-6-(4-chlorophenyl)-8-methoxy-1-methyl-4H-benzo[f][1,2,4]triazolo[4,3-a][1,4]diazepin-4-yl)acetamido)butyl)carbamoyl)phenyl)boronic acid]: the IC50 in series [2] (setting [8]), in series [3] (setting [9]) and in series [4] (setting [10]) was 0.05 to 1 µM throughout.

For the compound `COc1ccc2c(c1)C(c1ccc(Cl)cc1)=N[C@@H](CC(=O)NCc1ccc(O)c(O)c1)c1nnc(C)n1-2` [BRD-N-09, (S)-2-(6-(4-chlorophenyl)-8-methoxy-1-methyl-4H-benzo[f][1,2,4]triazolo[4,3-a][1,4]diazepin-4-yl)-N-(3,4-dihydroxybenzyl)acetamide], the IC50 in series [2] (setting [5]), in series [3] (setting [6]) and in series [4] (setting [7]) was 0.05 to 1 µM in each case.

As for `COc1ccc2c(c1)C(c1ccc(Cl)cc1)=N[C@@H](CC(=O)NCCCNC(=O)c1cccc(B(O)O)c1)c1nnc(C)n1-2` [BRD-E-04, (3-((3-(2-((4S)-6-(4-chlorophenyl)-8-methoxy-1-methyl-4H-benzo[f][1,2,4]triazolo[4,3-a][1,4]diazepin-4-yl)acetamido)propyl)carbamoyl)phenyl)-boronic acid], the IC50 in series [2] (setting [8]), in series [3] (setting [9]) and in series [4] (setting [10]) was 0.05 to 1 µM each time.

For `CCNC(=O)C[C@@H]1N=C(c2ccc(Cl)cc2)c2cc(OCCCCNC(=O)c3ccc(B(O)O)cc3)ccc2-n2c(C)nnc21` [BRD-E-26, (S)-(4-((4-((6-(4-chlorophenyl)-4-(2-(ethylamino)-2-oxoethyl)-1-methyl-4H-benzo[f][1,2,4]triazolo[4,3-a][1,4]diazepin-8-yl)oxy)butyl)carbamoyl)phenyl)boronic acid], the IC50 in series [2] (setting [8]), in series [3] (setting [9]) and in series [4] (setting [10]) was 0.05 to 1 µM throughout.

By melting point is commonly meant the temperature of the solid-liquid transition.
